The target in one series is ERα (Homo sapiens (Human), UniProt P03372). The series is described as follows: Degradation experiment of MCF-7 ERα (ELISA). The series is classed as cell-based. Conditions: MCF-7 cell line, 4 hours incubation, total ERα ELISA; read-out: IC50 value of promoting ERα degradation. The text has this:
(2) Degradation Experiment of MCF-7 ERα Experimental Materials:
Phenol red-free MEM culture medium was purchased from Wisent, fetal bovine serum was purchased from Biosera, and Human Total ERα/NR3A1 ELISA kit was purchased from R&D. MCF-7 cell line was purchased from Cell Bank of Type Culture Collection of Chinese Academy of Sciences. Nivo5 multi-label analyzer (PerkinElmer).
MCF-7 cells were resuspended in culture medium (phenol red-free MEM+5% charcoal/dextran-treated fetal bovine serum+1% penicillin-streptomycin double antibody solution), and seeded in a clear 96-well cell culture plate with 80 μL per well containing 20,000 cells, and the cell culture plate was incubated overnight in a carbon dioxide incubator;
ELISA plate was coated with strips, human total estrogen receptor a capture antibody was diluted with 1×PBS with a final concentration of 1 μg/mL, and 100 μL of mixture was added to each well, and incubated overnight at 25° C.
Cell administration: The test compound was diluted to the 8th concentration with a multi-channel pipette, and the compound concentration was 20 μM and 4 μM, and then diluted to the 8th concentration of 0.256 nM in turn, and a double-duplicate experiment was set-up. 78 μL of culture medium was added to the middle plate, then 2 μL of gradient dilution compound per well was transferred to the middle plate according to the corresponding position, and 20 μL of the mixture per well was mixed evenly and transferred to the cell plate, and the final concentration of DMSO was 0.5%, and the mixture was incubated at 37° C. for 4 hours;
preparation of standard curve solution: 110 ng/mL of standard curve storage solution was 6-fold diluted with buffer (1×PBS containing 1 mM EDTA, 0.5% Triton X-100, pH 7.2 to 7.4) to obtain a solution with a concentration of 18.3 ng/mL, and then 91.5-fold diluted with buffer (1×PBS containing 1 mM EDTA, 0.5% Triton X-100, 1 M urea, pH 7.2 to 7.4) to obtain a solution with a concentration of 0.2 ng/mL, and 8-point gradient dilution was performed using buffer (1×PBS containing 1 mM EDTA, 0.5% Triton X-100, 1 M urea, pH 7.2 to 7.4) with a final concentration of […].
1×PBS was pre-cooled, and after the incubation of the compound, the supernatant was removed, and then the plate was washed with 250 μL of pre-cooled 1×PBS per well, then 30 µL of cell lysate per well (1×PBS containing 1 mM EDTA, 0.5% Triton X-100, 6 M urea, 1 mM active sodium orthovanadate, 2.5 mM sodium pyrophosphate, lx protease inhibitor, pH 7.2 to 7.4) was added, and lysed on ice for 15 minutes;
after cell was lysed in the cell plate, the cell lysate was 6-fold diluted with 150 μL of buffer (1×PBS containing 1 mM EDTA, 0.5% Triton X-100, pH 7.2 to 7.4) per well, and the mixture was mixed evenly by blowing with a multi-channel pipette, and 100 μL of solution per well was transferred to the ELISA plate;
the human total estrogen receptor a detection antibody stock solution (14.4 μg/mL) was 36-fold diluted with buffer (1×PBS containing 1% bovine serum albumin), and the final concentration of the detection antibody was 400 ng/mL, and 100 μL of the solution per well was transferred to the ELISA plate and incubated at 25° C. for 2 hours;
Data analysis: A, B, C and D in the four-parameter equation y=(A−D)/[1+(x/C)^B]+D were calculated according to the original data of the standard curve, wherein, y was the original OD450 value, x was the concentration of the corresponding point of the standard curve. According to the four-parameter equation and the OD450 reading of the original data of the sample, the concentration of ERα at the corresponding point was calculated. The equation (Sample−Min)/(Max−Min)×100% was used to convert the original data into inhibition rate, and the IC50 value could be obtained by curve fitting with four parameters (obtained by “log (inhibitor) vs. response—variable slope” mode in GraphPad Prism).
Max wells: Positive control wells reading at 100 nM Fulvestrant-treated cell wells […]
On the technique in general: An ELISA detects its analyte on a solid surface through an enzyme-linked reagent.

Another series addresses CYP1A2 (Homo sapiens (Human), UniProt P05177). Type of series: in vitro ADME. Conditions: microsomes. The procedure: Experimental purposes: To test the inhibitory effect of test compound on the activity of human liver microsomal cytochrome P450 isoenzymes (CYP1A2 and CYP3A4) (Corning, Co., Ltd.).
Experimental operation: Firstly, the test compound (10 mM) was subjected to gradient dilution to prepare a working solution (100×final concentration), and the concentration of the working solution was: 5, 1.5, 0.5, 0.15, 0.05, 0.015 and 0.005 mM, respectively, and the working solution of each positive inhibitor of P450 isoenzyme (CYP1A2 and CYP3A4) and its specific substrate mixture (5 in 1) were prepared; and then the human liver microsomes frozen in the −80° C. refrigerator were thawed on ice, and all the human liver microsomes were dissolved, diluted with PB, and a certain concentration of working solution (0.253 mg/mL) was prepared; 20 μL of substrate mixture was added to the reaction plate (20 μL of PB was added to the blank well), while 158 μL of human liver microsomal working solution was added to the reaction plate, and the reaction plate was placed on ice for later use; at this time, 2 μL of various concentrations of the test compound (N=1) and specific inhibitor (N=2) were added to the corresponding well, and the corresponding organic solvent was added to the non-inhibitor (test compound or positive inhibitor) group as a control group sample (a ratio of DMSO:MeOH in the test compound control sample was 1:1, a ratio of DMSO:MeOH in the positive control sample was 1:9); after pre-incubation in a water bath at 37° C. for 10 min, 20 μL of coenzyme factor (NADPH) solution was added to the reaction plate, and incubated in a water bath at 37° C. for 10 min; and 400 μL of cold acetonitrile solution (internal standard was 200 ng/mL tolbutamide and labetalol) was added to terminate the reaction; the reaction plate was placed on a shaker and shaked for 10 minutes; and then centrifuged at 4,000 rpm for 20 minutes; 200 μL of the supernatant was taken and added to 100 μL of water for sample dilution; finally the plate was sealed, shaked and shaked well, for LC/MS/MS detection.

Like-named read-outs stand apart in the source and are kept apart here. Some results are limits rather than exact numbers.

By IC50 is commonly meant the midpoint of a concentration-inhibition curve.

CYP1A2, sequence (P05177 whole entry): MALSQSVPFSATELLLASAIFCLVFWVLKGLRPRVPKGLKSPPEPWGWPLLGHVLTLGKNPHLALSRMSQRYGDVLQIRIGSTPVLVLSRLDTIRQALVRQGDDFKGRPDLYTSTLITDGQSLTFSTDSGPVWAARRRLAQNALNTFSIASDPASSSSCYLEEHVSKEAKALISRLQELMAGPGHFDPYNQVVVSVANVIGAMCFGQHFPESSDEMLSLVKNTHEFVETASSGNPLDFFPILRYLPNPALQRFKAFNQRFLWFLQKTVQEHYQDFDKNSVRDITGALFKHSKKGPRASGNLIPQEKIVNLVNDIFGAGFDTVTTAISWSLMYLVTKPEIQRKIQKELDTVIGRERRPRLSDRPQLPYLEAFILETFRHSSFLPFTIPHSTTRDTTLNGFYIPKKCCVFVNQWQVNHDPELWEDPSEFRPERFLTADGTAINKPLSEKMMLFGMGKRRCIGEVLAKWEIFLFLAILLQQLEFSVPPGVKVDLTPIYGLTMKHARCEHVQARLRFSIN
ERα, sequence (P03372 whole entry): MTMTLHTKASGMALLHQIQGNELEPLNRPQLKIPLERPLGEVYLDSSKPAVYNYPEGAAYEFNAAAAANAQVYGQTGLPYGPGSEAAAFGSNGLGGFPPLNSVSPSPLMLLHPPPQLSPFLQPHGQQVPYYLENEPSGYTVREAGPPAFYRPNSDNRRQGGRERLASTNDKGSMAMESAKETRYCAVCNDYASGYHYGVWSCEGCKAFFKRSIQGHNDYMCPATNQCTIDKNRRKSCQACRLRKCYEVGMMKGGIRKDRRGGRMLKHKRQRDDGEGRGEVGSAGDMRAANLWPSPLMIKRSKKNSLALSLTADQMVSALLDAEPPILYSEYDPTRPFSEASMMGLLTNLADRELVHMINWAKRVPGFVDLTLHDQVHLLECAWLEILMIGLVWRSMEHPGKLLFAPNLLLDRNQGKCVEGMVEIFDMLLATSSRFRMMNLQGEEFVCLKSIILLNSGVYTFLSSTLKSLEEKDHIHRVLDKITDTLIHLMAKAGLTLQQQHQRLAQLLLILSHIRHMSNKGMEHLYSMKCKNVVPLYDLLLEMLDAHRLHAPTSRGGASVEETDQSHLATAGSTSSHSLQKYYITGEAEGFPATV

For `FCCCN1CC[C@H](Nc2cnc(C3=C(CC(F)(F)F)CCCc4c3ccc3[nH]nc(F)c43)cn2)C1` [Compound 11A], the IC50 was 0.23 nM at ERα and above 50000 nM at CYP1A2.
For `FCCCN1CC(Nc2ccc(C3=C(CC(F)(F)F)CCCc4c3ccc3[nH]nc(F)c43)nc2)C1` [Compound 2], the DC50 on ERα worked out at 0.2 nM. Besides, the IC50 against CYP1A2 (human, 10 min) was above 50000 nM.

These data come from patent publication US12415799B2, “Indazole-fused cyclic compound” (Zhejiang Yangli Pharmaceutical Technology Co., Ltd., priority 2020, dated 2025).
